The values below come from paper PMC9585939, “Unveiling a family of spiro-β-lactams with anti-HIV and antiplasmodial activity via phosphine-catalyzed [3+2] annulation of 6-alkylidene-penicillanates and allenoates” (Frontiers in Chemistry, 2022).

Structures are written as SMILES. Several values for one entry are separate records, joined by “and”; a condition that tells them apart may be missing. Equal values may be shown once. Read-outs that look alike come from different tables or passages of the source. A value given as a limit tells only on which side of the number the result lay.

In data set [1] the test system is HIV-1 SG3.1. To be noted: ref Bártolo et al., 2021; Alves et al., 2021c; cited from earlier work.
The test system of data set [2] is P. berghei hepatic stage. More on the design: method as in Bártolo et al., 2021; Alves et al., 2021c. To be noted: hepatic infection; ref Bártolo et al., 2021; Alves et al., 2021c; cited from earlier work.
Data set [3] has as its system P. falciparum strain NF54. More on the design: method as in Bártolo et al., 2021; Alves et al., 2021c. The conditions noted are these: erythrocytic infection; ref Bártolo et al., 2021; Alves et al., 2021c; cited from earlier work.
For data set [4], the system named is HIV-2 03PTHCC19. Nature of the data set: microbe, parasite or virus in culture. The conditions noted are these: Human immunodeficiency virus 2, TZM-bl; for IC50 / IC90: 48 h; for IC50: read-out: IC50 HIV-2; for IC90: read-out: IC90 HIV-2; for inhibition at 25 µg/mL: read-out: MPI (%) 25 μg/mL. An excerpt: (§1) The HIV-1 SG3.1 is a reference subtype B strain that uses the CXCR4 coreceptor. It was obtained by transfection of HEK293T cells with pSG3.1 plasmid using jetPRIME transfection reagent (Polyplus-transfection SA, Illkirch, France), according to the instructions of the manufacturer.
(§2) Briefly, TZM-bl cells were infected with 200 TCID50 of HIV-1 or HIV-2 in the presence of serial-fold dilutions of the compounds in the growth medium, supplemented with diethylaminoethyl-dextran (DEAE-dextran). After 48 h of infection, luciferase expression was quantified with Pierce Firefly Luc One-Step Glow Assay Kit (ThermoFisher Scientific, Rockford, United States), according to the instructions of the manufacturer. For each compound dilution, the assay was set up in triplicate wells. Virus controls, cell controls, and inhibitors controls (drugs with a known action against each virus) were employed.

The subject of data set [5] is HIV-1 SG3.1. Nature of the data set: microbe, parasite or virus in culture. To be noted: for IC50 / IC90: 48 h; for IC90: read-out: IC90 HIV-1; for inhibition at 25 µg/mL: read-out: MPI (%) 25 μg/mL.
From the text: as §1, §2

Data set [6] in a line: Cellular viability assay (alamarBlue) in TZM-bl cells. In kind it is cell-based. The conditions noted are these: human, 50% cytotoxic concentration. How it is done:
Before the antiviral activity screening, all spirocyclopentene-β-lactams were assayed for their in vitro cytotoxic activity (CC50) in TZM-bl cells (Table 4).
TZM-bl cells (AIDS Research and Reference Reagent Program, National Institutes of Health, United States) were cultured in complete growth medium consisting of Dulbecco’s Minimal Essential Medium (DMEM) supplemented with 10% fetal bovine serum (FBS), 100 U/ml of penicillin–streptomycin (Gibco/Invitrogen, United States), 1 mM of sodium pyruvate (Gibco/Invitrogen, United States), 2 mM of L-glutamine (Gibco/Invitrogen, United States), and 1 mM of non-essential amino acids (Gibco/Invitrogen, United States). Cell cultures were maintained at 37°C in 5% CO2.
The in vitro cytotoxicity of test compounds was evaluated in TZM-bl cells using alamarBlue cell viability reagent (Life Technologies, United States), according to the instructions of the manufacturer. The cells were cultured in the presence and absence of serial-fold dilutions of the test compounds. Each dilution of each compound was performed in triplicate wells. Medium controls (only growth medium), cell controls (cells without test compound), and cytotoxicity controls (a compound that kills cells) were employed in each assay.

Data set [7] concerns P. berghei hepatic stage. Nature of the data set: In vitro hepatic infection of Huh7 cells by luciferase-expressing P. berghei. The conditions noted are these: Plasmodium berghei; for IC50: Huh-7, hepatic stage, Huh7 cells, 48 h after infection. In kind it is cell-based. The protocol:
The inhibitory activity of test compounds on in vitro hepatic infection by P. berghei was determined by comparing the parasite load in compound- and solvent-treated P. berghei-infected Huh7 cells. Infection load was assessed by measurement of luminescence intensity in Huh7 cells infected, with a firefly luciferase-expressing P. berghei line, as previously described ([Ploemen et al., 2009]; [António et al., 2017]). Briefly, Huh7 cells were seeded in 96-well plates (1.0 × 10^4 cells per well) the day before drug treatment and infection. The medium was replaced by another medium containing the appropriate concentration of each compound approximately 1 h prior to infection with sporozoites freshly obtained through disruption of salivary glands of infected female Anopheles stephensi mosquitoes. Sporozoite addition was followed by centrifugation at 1,800 g for 5 min. Parasite infection load was measured 48 h after infection by a bioluminescence assay (Biotium). Cell confluence, a surrogate measure of compound toxicity to Huh7 cells, was assessed by fluorescence measurements using the alamarBlue assay, according to the manufacturer’s instructions. […] Specifically, non-linear regression analysis was employed to fit the normalized results of the dose-response curves, and IC50 values were determined using GraphPad Prism 8.0 (GraphPad Software, La Jolla, California, United States).

The subject of data set [8] is P. falciparum strain NF54. As to the kind of experiment: Blood stage antiplasmodial activity, SYBR green I flow cytometry. The conditions noted are these: Plasmodium falciparum, NF54, 48 h. In kind it is cell-based. The protocol:
Ring-stage synchronized cultures of P. falciparum strain NF54 at 2.5% hematocrit and at approximately 1% parasitemia were incubated with test compounds or dimethyl sulfoxide (DMSO, vehicle control) in 96-well plates for 48 h at 37°C in a 5% CO2 and 5% O2 atmosphere. Stock solutions of chloroquine (positive control) and compounds 9i, 12a, and 14a were prepared in DMSO. Working solutions were prepared from the stock solutions in complete malaria culture medium (CMCM), which consists of RPMI 1640 supplemented with 25 mM HEPES, 2.4 mM L-glutamine, 50 μg/ml gentamicin, 0.5% w/v Albumax, 11 mM glucose, 1.47 mM hypoxanthine, and 37.3 mM NaHCO3. For each measurement, 5 μl of the culture (approximately 800,000 cells) were stained with the DNA-specific dye SYBR green I. After 20 min of incubation in the dark, the stained sample was analyzed by flow cytometry. Approximately 100,000 events were analyzed in each flow cytometry measurement. Two independent experiments were performed, and all samples were analyzed in triplicate.

Data set [9] deals with HIV-2 03PTHCC19. More on the design: method as in Bártolo et al., 2021. To be noted: ref Bártolo et al., 2021; cited from earlier work.
The mark [10] stands for this setting: Human immunodeficiency virus 1, TZM-bl, read-out: IC50 HIV-1, TZM-bl cells, 48 h.
Where [11] appears, read: Human immunodeficiency virus 1, TZM-bl.
[12] abbreviates: read-out: IC50 HIV-1, TZM-bl cells.

Consider `CCOC(=O)C1=CCC2(C(=O)N3C(C(=O)OC(c4ccccc4)c4ccccc4)C(C)(C)SC32)C1C(=O)c1ccccc1` (stereo not drawn) [Compound 5], for which the half-inhibitory concentration (IC50) is 305 nM and < 300 nM in [1]; 1920 nM in data set [2]; 844 nM in data set [3].

Take `COC(=O)C1=CCC2(C(=O)N3C(C(=O)OC(c4ccccc4)c4ccccc4)C(C)(C)SC32)C1C(=O)Oc1ccccc1` (stereo not drawn) [Compound 4]: the figures for the IC50 in [2] and in data set [3] were 2290 nM and 1260 nM, respectively.

Regarding `COc1ccc(COC(=O)C2=CCC3(C(=O)N4C(C(=O)OC(c5ccccc5)c5ccccc5)C(C)(C)SC43)C2C(=O)c2ccccc2)cc1` (stereo not drawn) [Compound 9i, (1’R,2’R)-Benzhydryl spiro[(2-benzoyl-3-(4-methoxybenzyloxycarbonyl)cyclopent-3-ene)-1’,6-penicillanate]], the melting point was in the range of 65.3 to 67.4 °C. In data set [4], the concentration for half-maximal inhibition (IC50) came to 111 nM, the IC90 came out at 350 nM and the inhibition at 25 µg/mL turned out to be 100%. Further, the IC50 in data set [5] (setting [10]) was 15 nM. Besides, in data set [5] (setting [11]), the concentration for an effect of 90% (IC90) turned out to be 20 nM and the inhibition at 25 µg/mL came out at 100%. It took 35.8 µM to reach half-maximal cytotoxicity in data set [6] (CC50). Moreover, the inhibition at 1 µM in data set [7] (Huh-7, read-out: percentage of inhibition of hepatic infection) is less than 50%. Besides, the 50% inhibitory concentration (IC50) in data set [7] was found to be 285 ± 44 nM. In addition, the concentration for half-maximal inhibition (IC50) in data set [8] was found to be 336 ± 67 nM.

`COC(=O)C1C(C(=O)OCc2ccccc2)=CCC12C(=O)N1C(C(=O)OC(c3ccccc3)c3ccccc3)C(C)(C)SC12` (stereo not drawn) [BSS-722A]: the IC50 was 510 nM in [9], 650 nM in data set [1] and less than 5000 nM in data set [2].

In turn, `CC1(C)SC2N(C(=O)C23CC=C(C(=O)OCC=Cc2ccccc2)C3C(=O)c2ccccc2)C1C(=O)OC(c1ccccc1)c1ccccc1` (stereo not drawn) [Compound 9n, (1’R,2’R)-Benzhydryl spiro[(2-benzoyl-3-cinnamyloxycarbonylcyclopent-3-ene)-1’,6-penicillanate]] had a melting point of 67.8 to 69.4 °C. Also, in data set [4], the IC50 worked out at 16 nM, the IC90 was 64 nM and the inhibition at 25 µg/mL worked out at 100%. Further, the IC50 in data set [5] (setting [10]) amounted to 17 nM. Besides, in data set [5] (setting [11]), the 90% effect concentration (IC90) worked out at 46 nM and the inhibition at 25 µg/mL was found to be 100%. Moreover, half-maximal cytotoxicity in [6] (CC50) was put at 62.3 µM. This molecule registered an IC50 in data set [7] of 1580 ± 191 nM.

`CC1(C)SC2N(C(=O)C23CC=C(C(=O)OCC=Cc2ccccc2)C3C(=O)c2ccc(F)cc2)C1C(=O)OC(c1ccccc1)c1ccccc1` (stereo not drawn) [Compound 14c, (1’R,2’R)-Benzhydryl spiro[(2-(4-fluorobenzoyl)-3-cinnamyloxycarbonylcyclopent-3-ene)-1’,6-penicillanate]]: the melting point is 76.5 to 78.5 °C. In [4], the 50% inhibitory concentration (IC50) came to 39 nM, the IC90 is 103 nM and the inhibition at 25 µg/mL amounted to 100%. Moreover, in data set [5] (setting [10]), the IC50 was less than 20 nM. Also, in data set [5] (setting [11]), the IC90 was 18 nM and the inhibition at 25 µg/mL stood at 100%. The IC50 in data set [5] (setting [12]) worked out at 15 nM. The molecule also registered a cytotoxic concentration (CC50) in data set [6] of 77.6 µM. The molecule further yielded a 50% inhibitory concentration (IC50) in data set [7] of 1000 to 10000 nM.

For `CC1(C)SC2N(C(=O)C23CC=C(C(=O)OCc2ccccc2)C3C(=O)c2ccc(Br)cc2)C1C(=O)OC(c1ccccc1)c1ccccc1` (stereo not drawn) [Compound 12c, (1’R,2’R)-Benzhydryl spiro[(2-(4-bromobenzoyl)-3-benzyloxycarbonylcyclopent-3-ene)-1’,6-penicillanate]], the melting point lay in the range of 156.5 to 158.5 °C. Further, in data set [4], the IC50 came out at 93 nM, the IC90 stood at 159 nM and the inhibition at 25 µg/mL stood at 100%. Also, in data set [5] (setting [10]), the IC50 was 50 nM. In [5] (setting [11]), the 90% effect concentration (IC90) was determined as 116 nM and the inhibition at 25 µg/mL turned out to be 87%. This molecule also had a CC50 in data set [6] of 55 µM. In data set [7], this molecule registered an IC50 of 1000 to 10000 nM.

Turning to `COc1ccc(COC(=O)C2=CCC3(C(=O)N4C(C(=O)OC(c5ccccc5)c5ccccc5)C(C)(C)SC43)C2C(=O)c2ccc(Cl)cc2)cc1` (stereo not drawn) [Compound 14d, (1’R,2’R)-Benzhydryl spiro[(2-(4-chlorobenzoyl)-3-(4-methoxybenzyloxycarbonyl)cyclopent-3-ene)-1’,6-penicillanate]], the melting point was in the range of 76.1 to 78.1 °C. For the same molecule, in data set [4], the IC50 was 65 nM, the IC90 was determined as 123 nM and the inhibition at 25 µg/mL came out at 100%. In addition, in data set [5] (setting [10]), the IC50 was less than 20 nM. Moreover, in data set [5] (setting [11]), the IC90 turned out to be 19 nM and the inhibition at 25 µg/mL turned out to be 100%. For the same molecule, the half-maximal inhibitory concentration (IC50) in [5] (setting [12]) was found to be 15 nM. For the same molecule, in data set [6], the midpoint of cytotoxicity, the CC50, lay at 134 µM. In addition, the IC50 in [7] was found to be 2000 ± 458 nM.

`COc1ccc(COC(=O)C2=CCC3(C(=O)N4C(C(=O)OC(c5ccccc5)c5ccccc5)C(C)(C)SC43)C2C(=O)c2ccc(Br)cc2)cc1` (stereo not drawn) [Compound 14g, (1’R,2’R)-Benzhydryl spiro[(2-(4-bromobenzoyl)-3-(4-methoxybenzyloxycarbonyl)cyclopent-3-ene)-1’,6-penicillanate]]: the melting point was 82.6 to 84.6 °C. Moreover, in data set [4], the IC50 worked out at 87 nM, the 90% effect concentration (IC90) came to 137 nM and the inhibition at 25 µg/mL is 100%. The half-maximal inhibitory concentration (IC50) in data set [5] (setting [10]) turned out to be 30 nM. Also, in [5] (setting [11]), the IC90 was 99 nM and the inhibition at 25 µg/mL came out at 100%. Besides, half-maximal cytotoxicity in data set [6] (CC50) was put at 101 µM. This molecule registered an IC50 in [7] of 2590 ± 219 nM.

`CC1(C)SC2N(C(=O)C23CC=C(C(=O)OCC=Cc2ccccc2)C3C(=O)c2ccc(Br)cc2)C1C(=O)OC(c1ccccc1)c1ccccc1` (stereo not drawn) [Compound 14i, (1’R,2’R)-Benzhydryl spiro[(2-(4-bromobenzoyl)-3-cinnamyloxycarbonylcyclopent-3-ene)-1’,6-penicillanate]] yielded a melting point of 89.1 to 91.1 °C. For the same molecule, in data set [5] (HIV-1, CC50 in TZM-bl cells), the “Therapeutic index (CC50/IC50)” value was determined as 467.62. The IC50 in [5] (setting [10]) came out at 143 nM. In [5] (setting [11]), the IC90 came to 305 nM and the inhibition at 25 µg/mL turned out to be 95%. This molecule yielded a half-maximal cytotoxic concentration (CC50) in data set [6] of 66.9 µM.
